Experimental data from article PMC3532212 (PLoS ONE, 2012).
“Also recorded” adds a separate entry of the source.

How the values were obtained:
[1] = system: conscious, telemetry-instrumented rats; assay: Telemetry-instrumented conscious rats, single oral dose hemodynamics; assay type: in vivo; settings: conscious rat, BAF312 0.3, 3.0, 30 mg/kg single oral dose
Experimental: (§1) Mean arterial pressure was assessed in conscious, freely moving male Sprague Dawley rats (n = 6–8/group; Charles River) instrumented with telemetry transmitters (DSI-Ponemah) and housed in metabolism cages as previously described, [26]. Tested compounds were solubilized in a 0.5% Methylcellulose/0.015% Tween 80 vehicle that was also dosed alone (p.o./QD, 5 mL/kg) as a control in the study. FTY720 was administered p.o. at 0.3, 1.0, 3.0, 10.0 mg/kg p.o. as a single dose or p.o./QD at 0.5, 1.5, and 5.0 mg/kg in a chronic study. BAF312 was administered p.o/QD at 0.3, 3.0, and 30 mg/kg as a single dose and in a chronic study. Mean arterial pressure and heart rate are shown as 1-hr and/or 24-hr mean values±SEM as described in the results. Blood samples in satellite rats were withdrawn at various timepoints as described in the results for analysis of plasma concentrations of the parent compound and, in the case of FTY720, also the phosphorylated metabolite, (S)-FTY720-P. Statistical analysis for the single-dose acute studies was based on one-way ANOVA to compare the treatment groups vs. vehicle for each time period after dosing (0–24 hrs, 24–48 hrs, and 48–72 hrs); statistical significance (p<0.05) was detected by Dunnett’s post-hoc test to compare treatment with vehicle controls. The statistical analysis in the chronic studies were based on one-way ANOVA with repeated measures to compare the treatment arms; statistical significance (p<0.05) was detected by Dunnett’s post-hoc test to compare treatment with vehicle controls.

anesthetized rats = assay: Anesthetized rat cardiovascular study (mean arterial pressure, heart rate); assay type: in vivo
Experimental: (§2) The cardiovascular effects of FTY720 and BAF312 were tested in anesthetized rats (180–200 g). In brief, male Sprague Dawley rats (Charles River) were anesthetized with Inactin (110 mg/kg i.p.) and a tracheotomy performed. The femoral artery and veins were catheterized for measurement of mean arterial pressure and heart rate, collection of blood samples at 20-min intervals (0.2 mL/sample), and for compound infusion/hydration as previously described, [24]; blood samples were also withdrawn in vehicle-treated control rats. FTY720, infused as a hydrochloride salt (0.1, 0.3, 1.0 mg/kg/20-min free base equivalent solubilized in a 100% PEG-400 vehicle), or BAF312 (0.5, 1.5, 5.0 mg/kg/20-min solubilized in a 100% PEG-400 vehicle) were administered via three escalating 20-min infusions (0.011 mL/min) followed by a 1-hr post-treatment period. A blood sample was withdrawn at 20, 40, 60, and 120-minutes for analysis of plasma concentrations of the parent compound, and in the case of FTY720, also the phosphorylated metabolite, (S)-FTY720-P. Statistical significance (p<0.05) was based on a t-test comparing treatment change from baseline (baseline was defined as the period from −30 to 0 minutes) vs. vehicle controls change from baseline at each timepoint without adjustment for multiple comparisons. In a separate group of anesthetized rats in which left ventricular (LV) contractility was also recorded with a Millar pressure transducer introduced into the left ventricle, BAF312 was infused in the same dosing regimen as the studies described above (0.5, 1.5, 5.0 mg/kg/20-min solubilized in a 100% PEG-400 vehicle) and effects on LV dP/dtmax were recorded.

[2] = system: conscious, telemetry-instrumented rats; assay: Telemetry-instrumented conscious rats, repeat-dosing hemodynamics; assay type: in vivo; settings: conscious rat; for mean arterial pressure, average change in 24-mean values: 14-days of treatment
Experimental: as §1, with “BAF312 was administered p.o/QD at 0.3, 3.0, and 30 mg/kg as a single dose and in a chronic study.” left out

[3] = Plasma concentrations in repeat-dosing study, satellite rats; assay type: in vivo, rat; settings: for concentration at 4 h / concentration at 8 h / concentration at 24 h: male, Sprague Dawley, rat, plasma, po, mean±SEM; for Plasma concentration at Tmax (4 hrs) / Terminal plasma concentration at Tmax: satellite rats; for Plasma concentration at Tmax (4 hrs): day 1; for Terminal plasma concentration at Tmax: last day of study
Experimental: as §1

[4] = Plasma concentrations during escalating i.v. infusion in anesthetized rats; assay type: in vivo; settings: male, Sprague Dawley, plasma, iv, anesthetized rat, BAF312 i.v.
Experimental: as §2

concentration at 4 h ([3]; 0.3 mg/kg/day, BAF312 0.3 mg/kg/d p.o., Terminal (last day), 4 hr post-dose): 81 ± 8 nM | concentration at 8 h ([3]; 0.3 mg/kg/day, BAF312 0.3 mg/kg/d p.o., Terminal (last day), 8 hr post-dose): 54 ± 7 nM | concentration at 24 h ([3]; 0.3 mg/kg/day, BAF312 0.3 mg/kg/d p.o., Terminal (last day), 24 hr post-dose): 13 ± 6 nM | concentration at 4 h ([3]; 0.3 mg/kg/day, BAF312 0.3 mg/kg/d p.o., Day 1, 4 hr post-dose): 91 ± 7 nM | concentration at 8 h ([3]; 0.3 mg/kg/day, BAF312 0.3 mg/kg/d p.o., Day 1, 8 hr post-dose): 65 ± 8 nM | concentration at 24 h ([3]; 0.3 mg/kg/day, BAF312 0.3 mg/kg/d p.o., Day 1, 24 hr post-dose): 0 nM | concentration at 4 h ([3]; 3 mg/kg/day, BAF312 3.0 mg/kg/d p.o., Terminal (last day), 4 hr post-dose): 735 ± 73 nM | concentration at 8 h ([3]; 3 mg/kg/day, BAF312 3.0 mg/kg/d p.o., Terminal (last day), 8 hr post-dose): 480 ± 33 nM | concentration at 24 h ([3]; 3 mg/kg/day, BAF312 3.0 mg/kg/d p.o., Terminal (last day), 24 hr post-dose): 98 ± 8 nM | concentration at 4 h ([3]; 3 mg/kg/day, BAF312 3.0 mg/kg/d p.o., Day 1, 4 hr post-dose): 685 ± 113 nM | concentration at 8 h ([3]; 3 mg/kg/day, BAF312 3.0 mg/kg/d p.o., Day 1, 8 hr post-dose): 584 ± 81 nM | concentration at 24 h ([3]; 3 mg/kg/day, BAF312 3.0 mg/kg/d p.o., Day 1, 24 hr post-dose): 103 ± 9 nM | concentration at 4 h ([3]; 30 mg/kg/day, BAF312 30.0 mg/kg/d p.o., Terminal (last day), 4 hr post-dose): 8330 ± 650 nM | concentration at 8 h ([3]; 30 mg/kg/day, BAF312 30.0 mg/kg/d p.o., Terminal (last day), 8 hr post-dose): 5280 ± 443 nM | concentration at 24 h ([3]; 30 mg/kg/day, BAF312 30.0 mg/kg/d p.o., Terminal (last day), 24 hr post-dose): 942 ± 117 nM | concentration at 4 h ([3]; 30 mg/kg/day, BAF312 30.0 mg/kg/d p.o., Day 1, 4 hr post-dose): 6400 ± 390 nM | concentration at 8 h ([3]; 30 mg/kg/day, BAF312 30.0 mg/kg/d p.o., Day 1, 8 hr post-dose): 4820 ± 617 nM | concentration at 24 h ([3]; 30 mg/kg/day, BAF312 30.0 mg/kg/d p.o., Day 1, 24 hr post-dose): 721 ± 211 nM | Plasma concentration at Tmax (4 hrs) ([3]; BAF312 0.3 mg/kg/d p.o.): 91 ± 7 nM | Terminal plasma concentration at Tmax ([3]; BAF312 0.3 mg/kg/d p.o.): 81 ± 8 nM | Plasma concentration at Tmax (4 hrs) ([3]; BAF312 3.0 mg/kg/d p.o.): 685 ± 113 nM | Terminal plasma concentration at Tmax ([3]; BAF312 3.0 mg/kg/d p.o.): 735 ± 73 nM | Plasma concentration at Tmax (4 hrs) ([3]; BAF312 30 mg/kg/d p.o.): 6395 ± 390 nM | Terminal plasma concentration at Tmax ([3]; BAF312 30 mg/kg/d p.o.): 8328 ± 650 nM | concentration at 20 min ([4]; end of 0.5 mg/kg/20 min infusion): 1430 ± 707 nM | concentration at 40 min ([4]; end of 1.5 mg/kg/20 min infusion): 3.23 ± 0.21 µM | concentration at 60 min ([4]; end of 5.0 mg/kg/20 min infusion): 7.25 ± 0.517 µM | concentration at 120 min ([4]; end of 60-min post-treatment period): 2820 ± 276 nM
SMILES: CCc1cc(/C(C)=N/OCc2ccc(C3CCCCC3)c(C(F)(F)F)c2)ccc1CN1CC(C(=O)O)C1 [BAF312]
effect on heart rate [1]: no statistically significant effect | effect on mean arterial pressure [1]: no statistically significant effect | effect on mean arterial pressure (anesthetized rats; anesthetized rat, BAF312 0.5, 1.5, 5.0 mg/kg/20-min i.v.): no effect | time heart rate remained statistically reduced (anesthetized rats; anesthetized rat, BAF312 i.v. infusion): 30 min | heart rate, change from baseline (anesthetized rats; anesthetized rat, BAF312 i.v., 10-min into the first infusion period (0.5 mg/kg/20 min), vehicle −6±4): −51±8 beats/min | heart rate vs vehicle (anesthetized rats; anesthetized rat, BAF312 i.v., latter half of the 60-min infusion): not different from vehicle controls | effect on heart rate of acute i.v. infusion (anesthetized rats; anesthetized rats, FTY720 0.1, 0.3, 1.0 mg/kg/20 min or BAF312 0.5, 1.5, 5.0 mg/kg/20 min): acute bradycardia | mean arterial pressure, average change in 24-mean values ([2]; BAF312 0.3 mg/kg/d p.o./QD): 3.0±0.5 mmHg | 24-hr mean change in heart rate ([2]; BAF312 3 mg/kg dose group (so in the source), 14-day study): −2±2 beats/min | mean arterial pressure, average change in 24-mean values ([2]; BAF312 3.0 mg/kg/d p.o./QD): 1.1±0.5 mmHg | 24-hr mean change in heart rate ([2]; BAF312 10 mg/kg dose group (so in the source), 14-day study): −2±3 beats/min | 24-hr mean change in heart rate ([2]; BAF312 30 mg/kg dose group, 14-day study): −2±4 beats/min | mean arterial pressure, average change in 24-mean values ([2]; BAF312 30 mg/kg/d p.o./QD): 0.1±0.5 mmHg | effect on blood pressure / mean arterial pressure during repeat dosing ([2]; BAF312 0.3, 3.0, 30.0 mg/kg/d p.o.): no significant effect; also recorded: no significant increase | bradycardia during repeat dosing ([2]; BAF312 any dose group, 14-day study): no bradycardia was observed
